#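 1) Cells in 96-well plates. 2) Compound, 48 h, 5 concentrations. 3) Linear interpolation between surrounding doses. 4) Unreached endpoint = highest concentration. TGI is the concentration that stops growth completely.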
# Experiments:
# Assay in all cases: inhibition of tumour cell growth, NCI panel, 48 h
# 786-0 renal = test system: 786-0 renal
# A498 renal = test system: A498 renal
# A549 NSCLC = test system: A549 NSCLC
# ACHN renal = test system: ACHN renal
# BT-549 breast = test system: BT-549 breast
# CAKI-1 renal = test system: CAKI-1 renal
# CCRF-CEM leukemia = test system: CCRF-CEM leukemia
# COLO 205 colon = test system: COLO 205 colon
# DLD-1 colon = test system: DLD-1 colon
# DMS 114 small cell lung = test system: DMS 114 small cell lung
# DMS 273 small cell lung = test system: DMS 273 small cell lung
# DU-145 prostate = test system: DU-145 prostate
# EKVX NSCLC = test system: EKVX NSCLC
# HCC-2998 colon = test system: HCC-2998 colon
# HCT-116 colon = test system: HCT-116 colon
# HCT-15 colon = test system: HCT-15 colon
# HL-60(TB) leukemia = test system: HL-60(TB) leukemia
# HOP-18 NSCLC = test system: HOP-18 NSCLC
# HOP-62 NSCLC = test system: HOP-62 NSCLC
# HOP-92 NSCLC = test system: HOP-92 NSCLC
# HS 578T breast = test system: HS 578T breast
# HT29 colon = test system: HT29 colon
# IGROV1 ovarian = test system: IGROV1 ovarian
# K-562 leukemia = test system: K-562 leukemia
# KM12 colon = test system: KM12 colon
# KM20L2 colon = test system: KM20L2 colon
# LOX IMVI melanoma = test system: LOX IMVI melanoma
# LXFL 529 NSCLC = test system: LXFL 529 NSCLC
# M14 melanoma = test system: M14 melanoma
# M19-MEL melanoma = test system: M19-MEL melanoma
# MALME-3M melanoma = test system: MALME-3M melanoma
# MCF7 breast = test system: MCF7 breast
# MDA-MB-231 breast = test system: MDA-MB-231 breast
# MDA-MB-435 = test system: MDA-MB-435
# MDA-N = test system: MDA-N
# MOLT-4 leukemia = test system: MOLT-4 leukemia
# NCI-H226 lung = test system: NCI-H226 lung
# NCI-H23 lung = test system: NCI-H23 lung
# NCI-H460 lung = test system: NCI-H460 lung
# NCI-H522 lung = test system: NCI-H522 lung
# NCI/ADR-RES ovarian = test system: NCI/ADR-RES ovarian
# OVCAR-3 ovarian = test system: OVCAR-3 ovarian
# OVCAR-4 ovarian = test system: OVCAR-4 ovarian
# OVCAR-5 ovarian = test system: OVCAR-5 ovarian
# OVCAR-8 ovarian = test system: OVCAR-8 ovarian
# PC-3 prostate = test system: PC-3 prostate
# RPMI-8226 leukemia = test system: RPMI-8226 leukemia
# RXF 393 renal = test system: RXF 393 renal
# RXF-631 renal = test system: RXF-631 renal
# SF-268 CNS = test system: SF-268 CNS
# SF-295 CNS = test system: SF-295 CNS
# SF-539 CNS = test system: SF-539 CNS
# SK-MEL-2 melanoma = test system: SK-MEL-2 melanoma
# SK-MEL-28 melanoma = test system: SK-MEL-28 melanoma
# SK-MEL-5 melanoma = test system: SK-MEL-5 melanoma
# SK-OV-3 ovarian = test system: SK-OV-3 ovarian
# SN12C renal = test system: SN12C renal
# SNB-19 CNS = test system: SNB-19 CNS
# SNB-75 CNS = test system: SNB-75 CNS
# SNB-78 CNS = test system: SNB-78 CNS
# SR leukemia = test system: SR leukemia
# SW-620 colon = test system: SW-620 colon
# T-47D breast = test system: T-47D breast
# TK-10 renal = test system: TK-10 renal
# U251 CNS = test system: U251 CNS
# UACC-257 melanoma = test system: UACC-257 melanoma
# UACC-62 melanoma = test system: UACC-62 melanoma
# UO-31 renal = test system: UO-31 renal
smiles,measurement,setting,value
O=C1/C(=C/c2ccccc2)CN(C(=O)CCN2CCOCC2)C/C1=C\c1ccccc1,TGI,786-0 renal,3.98 µM
same,TGI,A498 renal,25.5 µM
same,TGI,A549 NSCLC,20.2 µM
same,TGI,ACHN renal,11.3 µM
same,TGI,BT-549 breast,4.71 µM
same,TGI,CAKI-1 renal,23 µM
same,TGI,CCRF-CEM leukemia,9.81 µM
same,TGI,COLO 205 colon,7.67 µM
same,TGI,DLD-1 colon,4.28 µM
same,TGI,DMS 114 small cell lung,7.59 µM
same,TGI,DMS 273 small cell lung,4.04 µM
same,TGI,DU-145 prostate,29.5 µM
same,TGI,EKVX NSCLC,26.7 µM
same,TGI,HCC-2998 colon,3.68 µM
same,TGI,HCT-116 colon,2.04 µM
same,TGI,HCT-15 colon,4.96 µM
same,TGI,HL-60(TB) leukemia,6.51 µM
same,TGI,HOP-18 NSCLC,30.4 µM
same,TGI,HOP-62 NSCLC,17.3 µM
same,TGI,HOP-92 NSCLC,22.2 µM
same,TGI,HS 578T breast,13.1 µM
same,TGI,HT29 colon,3.8 µM
same,TGI,IGROV1 ovarian,18.8 µM
same,TGI,K-562 leukemia,4.18 µM
same,TGI,KM12 colon,2.99 µM
same,TGI,KM20L2 colon,3.9 µM
same,TGI,LOX IMVI melanoma,2.21 µM
same,TGI,LXFL 529 NSCLC,6.35 µM
same,TGI,M14 melanoma,5.4 µM
same,TGI,M19-MEL melanoma,4.06 µM
same,TGI,MALME-3M melanoma,6.32 µM
same,TGI,MCF7 breast,6.29 µM
same,TGI,MDA-MB-231 breast,9.78 µM
same,TGI,MDA-MB-435,3.58 µM
same,TGI,MDA-N,4.07 µM
same,TGI,MOLT-4 leukemia,21.6 µM
same,TGI,NCI-H226 lung,15 µM
same,TGI,NCI-H23 lung,6.13 µM
same,TGI,NCI-H460 lung,5.47 µM
same,TGI,NCI-H522 lung,4.46 µM
same,TGI,NCI/ADR-RES ovarian,9.46 µM
same,TGI,OVCAR-3 ovarian,11.5 µM
same,TGI,OVCAR-4 ovarian,8.38 µM
same,TGI,OVCAR-5 ovarian,16.2 µM
same,TGI,OVCAR-8 ovarian,10.3 µM
same,TGI,PC-3 prostate,8.51 µM
same,TGI,RPMI-8226 leukemia,3.3 µM
same,TGI,RXF 393 renal,8.87 µM
same,TGI,RXF-631 renal,20.9 µM
same,TGI,SF-268 CNS,8.73 µM
same,TGI,SF-295 CNS,6.86 µM
same,TGI,SF-539 CNS,4.2 µM
same,TGI,SK-MEL-2 melanoma,6.96 µM
same,TGI,SK-MEL-28 melanoma,3.41 µM
same,TGI,SK-MEL-5 melanoma,4.99 µM
same,TGI,SK-OV-3 ovarian,24.2 µM
same,TGI,SN12C renal,4.55 µM
same,TGI,SNB-19 CNS,14.5 µM
same,TGI,SNB-75 CNS,20 µM
same,TGI,SNB-78 CNS,27.1 µM
same,TGI,SR leukemia,4.04 µM
same,TGI,SW-620 colon,1.55 µM
same,TGI,T-47D breast,7.35 µM
same,TGI,TK-10 renal,24.3 µM
same,TGI,U251 CNS,3.52 µM
same,TGI,UACC-257 melanoma,4.99 µM
same,TGI,UACC-62 melanoma,3.52 µM
same,TGI,UO-31 renal,19.2 µM
O=C(O)CC[C@H](NC(=O)c1ccc(-n2nc3ccc(O)cc3nc2=O)cc1)C(=O)O,TGI,786-0 renal,> 100 µM
same,TGI,A498 renal,> 100 µM
same,TGI,A549 NSCLC,> 100 µM
same,TGI,ACHN renal,> 100 µM
same,TGI,CCRF-CEM leukemia,> 100 µM
same,TGI,COLO 205 colon,> 100 µM
same,TGI,DLD-1 colon,> 100 µM
same,TGI,DMS 114 small cell lung,> 100 µM
same,TGI,DMS 273 small cell lung,> 100 µM
same,TGI,EKVX NSCLC,> 100 µM
same,TGI,HCC-2998 colon,> 100 µM
same,TGI,HCT-116 colon,> 100 µM
same,TGI,HCT-15 colon,> 100 µM
same,TGI,HL-60(TB) leukemia,> 100 µM
same,TGI,HOP-18 NSCLC,> 100 µM
same,TGI,HOP-62 NSCLC,> 100 µM
same,TGI,HOP-92 NSCLC,> 100 µM
same,TGI,HT29 colon,> 100 µM
same,TGI,IGROV1 ovarian,> 100 µM
same,TGI,K-562 leukemia,> 100 µM
same,TGI,KM12 colon,> 100 µM
same,TGI,KM20L2 colon,> 100 µM
same,TGI,LXFL 529 NSCLC,> 100 µM
same,TGI,M14 melanoma,> 100 µM
same,TGI,M19-MEL melanoma,> 100 µM
same,TGI,MALME-3M melanoma,> 100 µM
same,TGI,MOLT-4 leukemia,> 100 µM
same,TGI,NCI-H23 lung,> 100 µM
same,TGI,NCI-H460 lung,> 100 µM
same,TGI,NCI-H522 lung,> 100 µM
same,TGI,OVCAR-3 ovarian,> 100 µM
same,TGI,OVCAR-4 ovarian,> 100 µM
same,TGI,OVCAR-5 ovarian,> 100 µM
same,TGI,OVCAR-8 ovarian,> 100 µM
same,TGI,RPMI-8226 leukemia,> 100 µM
same,TGI,RXF 393 renal,> 100 µM
same,TGI,RXF-631 renal,> 100 µM
same,TGI,SF-268 CNS,> 100 µM
same,TGI,SF-295 CNS,> 100 µM
same,TGI,SF-539 CNS,> 100 µM
same,TGI,SK-MEL-2 melanoma,> 100 µM
same,TGI,SK-MEL-28 melanoma,> 100 µM
same,TGI,SK-MEL-5 melanoma,> 100 µM
same,TGI,SN12C renal,> 100 µM
same,TGI,SNB-19 CNS,> 100 µM
same,TGI,SNB-78 CNS,> 100 µM
same,TGI,SR leukemia,> 100 µM
same,TGI,SW-620 colon,> 100 µM
same,TGI,TK-10 renal,> 100 µM
same,TGI,U251 CNS,> 100 µM
same,TGI,UACC-257 melanoma,> 100 µM
same,TGI,UACC-62 melanoma,> 100 µM
same,TGI,UO-31 renal,> 100 µM

# Source: PubChem BioAssay (NCI)
